What is called Km is the substrate concentration at which the rate is half of its maximum. As usually defined, the Vmax is the top rate of the reaction or transport when substrate is in excess. The MIC is the lowest concentration found to suppress growth. Broadly, the pKa is the negative logarithm of the acid dissociation constant. As a reminder, the Ki is the equilibrium dissociation constant of an inhibitor or competing ligand from its target.

The target in series [1] is T1, purine nucleoside phosphorylase (PNP) from H. pylori 26695 strain (Helicobacter pylori, UniProt P56463). The following applies: m^7Guo as variable substrate, global fit, 25 °C, pH 7.0, 50 mM phosphate.
Procedure: (§3) Kinetic experiments with PNP, and also with AdSS, described in the section “AdSS and PNP inhibition detection of cellular uptake”, were performed on a double-beam UV/VIS spectrophotometer Cary 100, with thermostated Peltier cell holders (Varian: Agilent Technologies, Mulgrave, Vic., Australia). The inhibition constant was determined as the adjustable parameter in the global fitting of the competitive inhibition model to all data obtained, using the GraphPad Prism program (GraphPad Software, San Diego, CA, USA).
For the next series, the system named is P. falciparum PNP. The arrangement: method as in Dziekan et al. [2019]. Conditions: solution studies; ref Dziekan et al. [2019]; cited from earlier work.
The subject of the next series is H. pylori SS1 strain. Nature of the series: MIC by broth microdilution and FICI of 1:1 combinations, strain SS1. It counts as cell-based. Conditions: Helicobacter pylori, SS1STRAIN, 72 h, combinations 1:1 w/w given as inhibitor a/inhibitor b. As to the method:
(§1) Minimal inhibitory concentration of inhibitors was determined by an in vitro broth microdilution assay (Knezevic et al. [2018]). Briefly, double-strength Brain heart infusion broth (BHI) was supplemented with yeast extract (2.5%), horse serum (5%), and IsoVitaleX (1%). In each well, twofold serial dilutions of inhibitors (from 1000 µg/mL to 7.8 μg/mL in a final volume) and an equal volume of inoculated double-strength BHI were added (approx. 1 × 10^6 CFU/mL in final volume). Amoxicillin was used as a positive control, and distilled water as a negative control. The microtiter plates were incubated at 37 °C under microaerobic conditions in moist atmosphere for 3 days. […] During the incubation, in wells with viable H. pylori urease produced by the bacteria converted urea into ammonia and carbon dioxide, changing the pH and color of a phenol red indicator in the medium (from orange to purple). The plates were examined visually for color change and OD560 was measured after 4 h in order to determine presence/absence of growth. The MIC is defined as the lowest concentration of a compound that inhibits visible growth, compared with the growth in the controls (in this case defined as presence/absence of color change). All experiments were performed in duplicate and in 3–6 independent tests.
(§2) In order to determine possible additive or even synergistic effect of inhibitors, a method with calculation of the fractional inhibitory concentration index (FICI) was used (Pillai et al, [2005]). A combination of two inhibitors was applied (w/w 1:1) in the final concentration 1 mg/mL and subsequently diluted. The FICI index was calculated as FICI = (MICA/MICa) + (MICB/MICb), where MICA = concentration of inhibitor a in combination with inhibitor b; MICa = MIC of inhibitor a, applied as a single agent; MICB = concentration of inhibitor b in combination with inhibitor a; and MICb = MIC of inhibitor b applied as a single agent. The results were interpreted as a synergistic effect if the FICI was ≤ 0.5; as an additive effect if 0.5 < FICI ≤ 1; an indifferent effect if 1 < FICI ≤ 4; and as an antagonistic effect if the FICI was > 4 (Pillai et al. [2005]).
For orientation: Dilution methods test growth across graded concentrations, often in twofold steps.

The conditions of series [2]: ref Giziewicz and Shugar [1977], Wierzchowski and Shugar [1982], Bzowska et al. [1992] (formycins), Gottlieb and Shaw [2013] (hadacidin), cited from earlier work; for pKa (first value): Hellgren et al. [1995] (metronidazole).
Series [3] is described as follows: pKa values and ionic form at pH 7. The series is classed as physicochemical. From the text: Table 3 Partition coefficients of the neutral and ionized forms, and pKa values of the tested compounds, and of metronidazole used as a control in the cellular uptake studies. Partition coefficients of the ionic forms observed at pH 7 are marked bold | column: Ionic form at pH 7

Series [4] relates to H. pylori ATCC 26695 strain. Nature of the series: MIC by broth microdilution and FICI of 1:1 combinations, strain 26695. The series is classed as cell-based. Conditions: Helicobacter pylori, ATCC26695, 72 h, combinations 1:1 w/w given as inhibitor a/inhibitor b. The method, then: as §1, §2
Series [5] concerns the target adenylosuccinate synthetase (AdSS) from H. pylori 26695 strain. Further details: method as in Bubić et al. [2018]. The following applies: H. pylori 26695 strain AdSS; ref Bubić et al. [2018]; cited from earlier work.
Series [6] deals with H. pylori 26695 strain cells. Nature of the series: Cellular uptake (accumulation test), detection by inhibition of the target enzyme (AdSS or PNP). The series is classed as cell-based. Conditions: 8 h.
Procedure: Overnight cultures of H. pylori wild-type 26695 strain were grown by shaking (120 rpm) at 37 °C under microaerophilic conditions (5% O2, 10% CO2, 85% N2) in BHI medium (37 g/L) supplemented with 10% Fetal Bovine Serum and 1% Helicobacter pylori Selective Supplement. Cells were collected by centrifugation (5 min at 8000 × g at room temperature). The supernatant was decanted and the cell pellets were suspended in F12 medium (with L-glutamine and sodium bicarbonate) and centrifuged again. The supernatant was decanted again and cell pellets were resuspended in such a volume of F12 medium to obtain an OD600 of 4.0.
(§4) The accumulation test was carried out in 24-deep-well 2 mL flat-bottomed plates, all in a final volume of 1 mL. Three types of samples were used, generated by mixing the following components in a 1:1 ratio: (1) concentrated and resuspended cells in F12 medium, (2) a solution of the appropriate concentration of a test compound in F12 medium, (3) F12 medium.
The final concentrations of the tested compounds were 350 µM and 35 µM for formycin A and formycin B, and 35 μM for hadacidin. One set of three replicate samples was incubated at 37 °C, and the other set was incubated at 4 °C. […]
where Km and Vmax are the Michaelis constant and maximal velocity, respectively, and Ki is the inhibition constant of the tested inhibitor, in our case hadacidin. […] These values, together with velocity measured for any tested supernatant, Cinhibitor_start , and velocity measured when only F12 medium is present, v, are sufficient to determine inhibitor concentration, Ctested , present in a tested supernatant, using Eq. (4), which is obtained by the rearrangement of Eq. (2) and Eq. (3):4 Ctested=Cinhibitor_start1/vtested-1/v/1/vinhibitor_start-1/v
The formycin B uptake was studied in the same way, but instead of AdSS, PNP was used, since it is the target enzyme for this inhibitor. […] Specific activity is expressed as units per mg of protein (U/mg).
Series [7] deals with H. pylori 26695 strain cells. Kind of series: Cellular uptake (accumulation test), LC–MS detection. It counts as cell-based. As to the method: Formycin A, formycin B, and metronidazole were quantified through the ultra-performance liquid chromatography–tandem mass spectrometry. Samples were analyzed on Waters Xevo TQ-S with a standard ESI ion source coupled to Waters Acquity I-class UPLC.
Calibration samples were prepared by spiking blank growth medium F12 by the tested inhibitor, formycin A, formycin B, or metronidazole solutions. Internal standards (IS) were used to improve the accuracy of the method. To each pipetted sample from a particular experiment, the same amount of IS was added. As a detector response, we considered the ratio of the analyte peak area (variable) to the internal standard peak area (constant). This allows compensation for signal changes due to a possible instability of the ion source. If the ionization efficiency changes, both compounds are affected, but the surface peak ratio is maintained. […] Samples and calibrators were precipitated using IS solution and injected on the instrument.
Calibration curves were acquired by plotting the concentration of the standards against the ratio of the analyte peak area to the IS peak area. The calibration curve for FA in low concentration (35 μM) consisted of 7 samples in the range from 0.23 to 37.5 μM (R^2 = 0.997); for FA in high concentration (350 μM), the curve consisted of 6 samples in the range from 3.7 to 374.7 μM (R^2 = 0.995); for FB in low concentration (35 μM), the curve consisted of 7 samples in the range from 0.291 to 46.5 μM (R^2 = 0.999); for FB in high concentration (350 μM), the curve consisted of 7 samples in the range from 2.91 to 465.0 μM (R^2 = 0.999); and for MTZ (0.5 μM), the calibration curve was 8 samples in the range from 0.584 to 584.2 nM (R^2 = 0.995).
Chromatography was run on Waters Acquity BEH C18, 1.7 μm, 2.1 mm × 50 mm analytical column thermostated at 70 °C. The separations were done using 2.5 min gradient method. Phase A was 0.1% formic acid in MilliQ water; phase B was 0.1% formic acid in acetonitrile. For formycins the gradient started at 5% B and increased linearly to 50% B in 1.6 min; at 1.8 min it returned to the starting condition for column equilibration. For metronidazole the gradient started at 5% B and increased linearly to 50% B in 1.3 min; at 2.0 min it returned to the starting condition for column equilibration. The flow rate was 600 μL/min in both methods. The retention time of FA was 0.42 min, FB was 0.45 min (see Fig. 4a, b), and MTZ 0.88 min.

Series [8] concerns H. pylori 26695 strain cells. Nature of the series: Cellular uptake (accumulation test), UV absorption detection. Conditions: 8 h.
Procedure: Cellular uptake of PNP inhibitors, formycin A (FA) and formycin B (FB), and the control compound, metronidazole (MTZ), was determined using the approach described by Zhou et al. ([2015]) for E. coli and Pseudomonas aeruginosa, adapted to conditions suitable for H. pylori cell growth. This method measures the change of extracellular drug concentration using LC–MS detection.
Overnight cultures of H. pylori wild-type 26695 strain were grown by shaking (120 rpm) at 37 °C under microaerophilic conditions (5% O2, 10% CO2, 85% N2) in BHI medium (37 g/L) supplemented with 10% Fetal Bovine Serum and 1% Helicobacter pylori Selective Supplement. Cells were collected by centrifugation (5 min at 8000 × g at room temperature). The supernatant was decanted and the cell pellets were suspended in F12 medium (with L-glutamine and sodium bicarbonate) and centrifuged again. The supernatant was decanted again and cell pellets were resuspended in such a volume of F12 medium to obtain an OD600 of 4.0. F12 medium was selected for experiments because it is a minimal medium of defined composition and is suitable for measurements on MS.
as §4
The final concentrations of the tested compounds were 350 µM and 35 µM for formycin A and formycin B, and 35 μM for hadacidin. One set of three replicate samples was incubated at 37 °C, and the other set was incubated at 4 °C. Samples were taken at the start of the accumulation test, to check the concentration of the inhibitor at the start (named “Inhibitor_start,” “H. pylori + inhibitor_start”), then after 4 and 8 h of incubation at both temperatures. The obtained samples were centrifuged at 8000 × g for 5 min at 4 °C. The supernatant was collected for the LC–MS analysis (used for MTZ, FA, and FB uptake), UV absorption measurements (used for FA and FB uptake), and AdSS and PNP inhibition analysis (used for Hada and FB uptake).
For cellular uptake of formycin A and formycin B, UV absorption was additionally used as a detection method. […] Nevertheless, there is some overlap between these spectra, and because of that, selective observation of formycins absorption is not possible. Moreover, during the cellular uptake experiment, H. pylori cells may take some UV absorbing nutrients from the medium, as well as release some metabolic products that also absorb in the UV region. Therefore, in the cellular uptake experiment, correction for absorption caused by these processes was introduced by including samples containing just H. pylori cells in F12 medium, incubated for 4 and 8 h at both temperatures, and subtracting absorption spectra of such supernatants.
Samples in this case were the same as those evaluated by the LC–MS detection and by analysis of the inhibition of the PNP activity. The UV spectra of the supernatants, from experiments with 350 μM and at 35 μM inhibitor concentration, diluted with water 10 times and 2 times, respectively (with the absorbance of F12 medium, 10 times or 2 times diluted with water, as a reference), were measured. The absorbance at the most suitable wavelengths was used to calculate the formycin concentration. […]
The target in series [9] is T1, purine nucleoside phosphorylase (PNP) from H. pylori 26695 strain. The arrangement: made in house; method as in Narczyk et al. [2018]. Conditions: H. pylori 26695 strain PNP; ref Narczyk et al. [2018]; cited from earlier work.
A further series deals with E. coli PNP. Further details: method as in Bzowska et al. [1992]. Conditions: ref Bzowska et al. [1992]; cited from earlier work.
Series [10] has as its target T1, purine nucleoside phosphorylase (PNP) from H. pylori 26695 strain. Nature of the series: biochemical.
Procedure: as §3
The mark [11] stands for this setting: H. pylori SS1, geometrical mean of repetitions.
[12] abbreviates: H. pylori ATCC 26695, geometrical mean of repetitions.
The mark [13] stands for this setting: starting concentration 35 µM, LC–MS, 8 h incubation, Eq. (1).
The mark [14] stands for this setting: starting concentration 350 µM, LC–MS, 8 h incubation, Eq. (1).
[15] abbreviates: starting concentration 350 µM, UV absorption at 294 nm.

Like-named read-outs stand apart in the source and are kept apart here.

T1 sequence (P56463 whole entry): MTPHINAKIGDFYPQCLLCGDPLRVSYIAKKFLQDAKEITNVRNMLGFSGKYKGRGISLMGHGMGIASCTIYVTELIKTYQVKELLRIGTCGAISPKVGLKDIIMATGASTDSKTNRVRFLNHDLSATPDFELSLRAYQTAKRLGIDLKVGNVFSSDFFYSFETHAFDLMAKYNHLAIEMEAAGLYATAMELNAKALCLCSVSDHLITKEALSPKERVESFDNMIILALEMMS

Turning to `C[n+]1cn([C@@H]2O[C@H](CO)[C@@H](O)[C@H]2O)c2nc(N)[nH]c(=O)c21` [m^7Guo, 7-Methylguanosine], in series [1], the Km was 0.0463 ± 0.0044 mM and the Vmax came out at 12.5 ± 0.5 µmol/min/mg.
For `C=C[C@H]1C[N@@]2CC[C@H]1C[C@H]2[C@H](O)c1ccnc2ccc(OC)cc12` [quinine], the “Binding affinity to P. falciparum PNP” value with P. falciparum PNP is listed as “low nanomolar affinity”.
For the compound `O=CN(O)CC(=O)O` [Hadacidin], the MIC with H. pylori SS1 strain (setting [11]) is over 1000 µg/mL; in the series with H. pylori SS1 strain (H. pylori SS1), over 8.4 mM; in [4] (setting [12]), over 1000 µg/mL; in series [4] (H. pylori ATCC 26695) it was over 8.4 mM. Besides, in series [2], the “pKa (first value)” value is reported as 3.5. In series [2], the “pKa” value is recorded as 9.4. For the same compound, the “Ionic form at pH 7” value in series [3] is recorded as “Anion”. Also, the Ki in series [5] is 0.19 ± 0.02 µM. The Intracellular accumulation in [6] (starting concentration 35 µM, AdSS inhibition detection) was 4.9 ± 4.1 µM; in series [6] (starting concentration 35 µM, AdSS inhibition detection, listed as hadacidin), “does not enter H. pylori cells”.
`Nc1ncnc2c([C@@H]3O[C@H](CO)[C@@H](O)[C@H]3O)n[nH]c12` [Formycin A]: the MIC in the series with H. pylori SS1 strain (setting [11]) is over 1000 µg/mL; in the series on H. pylori SS1 strain (H. pylori SS1), over 3.5 mM; in series [4] (setting [12]) it was at least 870 µg/mL; in series [4] (H. pylori ATCC 26695), at least 3.1 mM. The Intracellular accumulation is on record as 15.9 ± 0.5 µM in series [7] (setting [13]); 29.5 ± 5.3 µM in [7] (setting [14]); “up to 29.5 ± 5.3 µM” in series [7] (starting concentration 350 µM, LC–MS, 8 h incubation, Eq. (1), listed as formycin A); 6.7 ± 0.6 µM in series [8] (starting concentration 35 µM, UV absorption at 305 nm); 35.2 ± 7.1 µM in [8] (setting [15]); 22.2 ± 7.6 µM in [8] (starting concentration 350 µM, UV absorption at 305 nm, Eq. (1), no correction for metabolites). The “pKa (first value)” value in [2] is recorded as 4.6. Moreover, the “pKa” value in series [2] was 9.7. The “Ionic form at pH 7” value in series [3] was “Neutral”. Further, the Ki in series [9] is 14 ± 1.7 µM; with E. coli PNP, 5.3 ± 0.4 µM.
For the compound `Cc1ncc([N+](=O)[O-])n1CCO` [Metronidazole], the Intracellular accumulation in [7] (Helicobacter pylori, 8 h, 0.5 µM) was 0.37 ± 0.01 µM. Further, the “Ionic form at pH 7” value in series [3] is listed as “Neutral”.
For `O=c1[nH]cnc2c([C@@H]3O[C@H](CO)[C@@H](O)[C@H]3O)n[nH]c12` [Formycin B], the MIC was at least 397 µg/mL in the series with H. pylori SS1 strain (setting [11]), at least 1.5 mM in the series with H. pylori SS1 strain (H. pylori SS1), over 1000 µg/mL in series [4] (setting [12]) and over 3.7 mM in [4] (H. pylori ATCC 26695). Further, the affinity in series [10], expressed as Ki, was 0.96 ± 0.08 µM. For the same compound, the Intracellular accumulation is 2.5 ± 0.5 µM in [7] (setting [13]); 7.1 ± 2.5 µM in series [7] (setting [14]); “up to 7.1 ± 2.5 µM” in series [7] (starting concentration 350 µM, LC–MS, 8 h incubation, Eq. (1), listed as formycin B); 3.0 ± 9.2 µM in series [8] (starting concentration 350 µM, UV absorption at 279 nm); 1.0 ± 7.4 µM in [8] (setting [15]); 20.2 ± 34.0 µM in [6] (starting concentration 350 µM, PNP inhibition detection). Also, the “pKa (first value)” value in series [2] is 0.9. For the same compound, the “pKa” value in [2] was 8.6. The “Ionic form at pH 7” value in series [3] is given as “Neutral”.
